Measurements reported in patent US6734212B2, “Methods and compositions for treating or preventing bacterial infection” (Shanghai East Best Biopharmaceutical, priority 2001, dated 2004).
Like-named read-outs stand apart in the source and are kept apart here. Blank lines part the entries; values can stand above or below the molecule they belong to.

Legend:
E. coli Proteinase In = biological target: T1, E. coli Proteinase In (Escherichia coli, UniProt P27298); test: Inhibition of purified E. coli proteinase In (fluorogenic substrate Boc-Val-Pro-Arg-NH-Mec); format: biochemical
T1 construct: We detected a single activity and had purified it to homogeneity; made in house; host or cells: endogenous enzyme purified from E. coli extracts (not recombinant)
T1 sequence (P27298 whole entry): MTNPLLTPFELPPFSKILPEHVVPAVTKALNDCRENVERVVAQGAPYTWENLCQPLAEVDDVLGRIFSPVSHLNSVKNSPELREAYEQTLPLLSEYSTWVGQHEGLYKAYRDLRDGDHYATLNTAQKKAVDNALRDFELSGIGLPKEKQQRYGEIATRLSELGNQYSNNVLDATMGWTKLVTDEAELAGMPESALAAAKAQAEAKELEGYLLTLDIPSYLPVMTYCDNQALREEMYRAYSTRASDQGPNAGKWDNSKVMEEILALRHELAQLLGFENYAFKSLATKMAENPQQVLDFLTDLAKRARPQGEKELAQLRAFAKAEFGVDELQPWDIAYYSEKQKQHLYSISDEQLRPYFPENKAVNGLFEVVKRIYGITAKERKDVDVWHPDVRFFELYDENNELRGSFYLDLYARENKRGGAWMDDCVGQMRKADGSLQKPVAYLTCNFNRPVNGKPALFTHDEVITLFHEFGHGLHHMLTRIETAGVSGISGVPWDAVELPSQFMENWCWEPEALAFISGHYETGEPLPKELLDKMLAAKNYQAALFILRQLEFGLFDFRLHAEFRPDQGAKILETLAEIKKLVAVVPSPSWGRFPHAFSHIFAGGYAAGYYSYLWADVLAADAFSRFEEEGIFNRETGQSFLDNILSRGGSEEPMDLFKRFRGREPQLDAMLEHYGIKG
Text: Since the GMCHA derivatives were originally identified as synthetic trypsin inhibitors in vitro, we investigated whether a trypsin-like protease could be detected in E. coli extracts using as fluorogenic substrate Boc-Val-Pro-Arg-NH-Mec. (Kato et al., Eur. J. Biochem., 210:1007-1014 (1992)). We detected a single activity and had purified it to homogeneity. […] The purified enzyme has a molecular mass of ˜66 kDa and an isoelectric point of 4.9. Based upon pH optimum, hydrolytic activity on various synthetic substrates, and effects of various known proteolytic inhibitors, this E. coli protease has very different specificity than mammalian trypsin or any of known bacterial enzymes. Most exciting is the finding that the sensitivity of the purified enzyme to various GMCHA derivatives paralleled exactly their inhibitory effects on E. coli (Table 1). […] (Kato et al., Biol.Pharm. Bull., 16:552-557 (1993)). […]. […] We named this enzyme proteinase In, and its gene was identical with prlC. The prlC gene encoded a 67 kDa protein with two active sites for proteinase In and oligopeptidase A. (Jiang et al., J. Biochem., 124:980-985 (1998)). […] (Irisawa et al., Biol. Pharm. Bull., 16:1211-1215 (1993)).

E. coli = test: Effects of GMCHA derivatives on E. coli growth; format: cell-based; settings: for IC50: Escherichia coli; for E. coli IC91 / E. coli IC100: growth, Table 2
S. epidermidis = test: Effects of aromatic esters of GMCHA on growth of S. epidermidis; format: cell-based
S. aureus = test: Effects of aromatic esters of GMCHA on growth of S. aureus; format: cell-based; settings: for IC20: Staphylococcus aureus, read-out: S. aureus IC20; for S. aureus IC100: growth
B. subtilis = test: Effects of aromatic esters of GMCHA on growth of B. subtilis; format: cell-based; settings: for IC50: Bacillus subtilis
H. pylori [1] = test: MIC against 9 strains of H. pylori; format: cell-based; settings: 9 ATCC strains of H. pylori
Experimental: MICs (μg/ml) of several substances against 9 strains (ATCC43504, ATCC43629, ATCC43526,ATCC43579,ATCC49503,ATCC51110,ATCC51652,ATCC51653, ATCC51932) of H. pylori were examined. NE-2001 had minimal inhibitory concentrations (MICs) ranging from 0.10 to 0.48 μg/ml.

[2] = system: synchronized E. coli cells; format: cell-based
[3] = Single dose toxicity in mice; format: in vivo
H. pylori ATCC43504 = test: Appearance frequency of natural resistant mutation; format: cell-based
Text: FIG. 3. Illustrates the anti-H. pylori effects of the compound NE-2001 at various pH values. The appearance frequency of natural resistant mutations against NE-2001 was examined (Table 4).

H. pylori [4] = test: Bactericidal effect against H. pylori (time course, various concentrations and pH); format: cell-based; settings: concentration ≧1.25 μg/ml
Experimental: FIG. 2 illustrates the anti-H. pylori effects of the compound NE-2001. Bactericidal effect was examined at various concentration (0.15-2.50 μg/ml) for 168 hours. […] No visible organism was detected in 3 hr at a concentration of ≧1.25 μg/ml.

[5] = read-out: E. coli Proteinase In IC50

Compound: N=C(N)NCC1CCC(C(=O)Oc2ccccc2-c2ccccc2)CC1 (centres unmarked) [BP02]
IC50 (E. coli Proteinase In): 83 µM
IC50 (E. coli): 74 µM

Compound: N=C(N)NCC1CCC(C(=O)Oc2c(Cl)cc(Cl)cc2Cl)CC1 (centres unmarked) [PH06]
IC50 (E. coli Proteinase In): 35 µM
IC50 (E. coli): 44 µM

Compound: N=C(N)NCC1CCC(C(=O)Oc2ccc(Cl)cc2Cl)CC1 (centres unmarked) [PH05]
IC50 (E. coli Proteinase In): 62 µM
IC50 (E. coli): 92 µM

Compound: N=C(N)NCC1CCC(C(=O)Oc2ccccc2)CC1 (centres unmarked) [PH01]
IC50 (E. coli Proteinase In; [5]): > 200 µM
S. epidermidis IC91 (S. epidermidis): 128
S. epidermidis IC100 (S. epidermidis): > 200 µM
IC50 (E. coli): > 200 µM
E. coli IC91 (E. coli): >200
E. coli IC100 (E. coli): > 200 µM
IC20 (S. aureus): 151 µM
S. aureus IC100 (S. aureus): > 200 µM
B. subtilis IC100 (B. subtilis): > 200 µM
IC50 (B. subtilis): > 200 µM

Compound: Cc1ccc(OC(=O)C2CCC(CNC(=N)N)CC2)cc1 (centres unmarked) [PH02]
IC50 (E. coli Proteinase In; [5]): > 200 µM
S. epidermidis IC91 (S. epidermidis): 48
S. epidermidis IC100 (S. epidermidis): 120 µM
IC50 (E. coli): > 200 µM
E. coli IC91 (E. coli): >200
E. coli IC100 (E. coli): > 200 µM
IC20 (S. aureus): 47 µM
S. aureus IC100 (S. aureus): 120 µM
B. subtilis IC100 (B. subtilis): > 200 µM
IC50 (B. subtilis): > 200 µM

Compound: CCc1ccc(OC(=O)C2CCC(CNC(=N)N)CC2)cc1 (centres unmarked) [PH03]
IC50 (E. coli Proteinase In; [5]): > 200 µM
S. epidermidis IC91 (S. epidermidis): 14
S. epidermidis IC100 (S. epidermidis): 50 µM
IC50 (E. coli): 167 µM
E. coli IC91 (E. coli): 167
E. coli IC100 (E. coli): > 200 µM
IC20 (S. aureus): 15 µM
S. aureus IC100 (S. aureus): 50 µM
B. subtilis IC100 (B. subtilis): > 200 µM
IC50 (B. subtilis): 129 µM

MIC Range (H. pylori [1]): 0.01 to 0.08 µg/mL
Compound: CC1(C)S[C@@H]2[C@H](NC(=O)[C@H](N)c3ccc(O)cc3)C(=O)N2[C@H]1C(=O)O [Amoxicillin]

Compound: CC(C)(C)c1ccc(OC(=O)C2CCC(CNC(=N)N)CC2)cc1 (centres unmarked) [PH04]
IC50 (E. coli Proteinase In): 38 µM
S. epidermidis IC91 (S. epidermidis): 2.9
S. epidermidis IC100 (S. epidermidis): 10 µM
IC50 (E. coli): 45 µM
E. coli IC91 (E. coli): 45
E. coli IC100 (E. coli): 90 µM
IC20 (S. aureus): 3.4 µM
S. aureus IC100 (S. aureus): 15 µM
B. subtilis IC100 (B. subtilis): 50 µM
IC50 (B. subtilis): 26 µM
duration of R1 period [2]: 35 min
time at which DNA synthetic activity doubled [2]: 65 min
time of initiation of DNA synthesis [2]: 30 min

Compound: N=C(N)NCC1CCC(C(=O)Oc2ccc(-c3ccccc3)cc2)CC1 (centres unmarked) [BP01]
IC50 (E. coli Proteinase In): 17 µM
S. epidermidis IC91 (S. epidermidis): 0.4
S. epidermidis IC100 (S. epidermidis): 1.5 µM
IC50 (E. coli): 26 µM
E. coli IC91 (E. coli): 26
E. coli IC100 (E. coli): 40 µM
IC20 (S. aureus): 0.6 µM
S. aureus IC100 (S. aureus): 2 µM
B. subtilis IC100 (B. subtilis): 10 µM
IC50 (B. subtilis): 4 µM

Compound: Cc1ccc(COC(=O)c2ccc(-c3ccc(OC(=O)c4ccc(CNC(=N)N)cc4)cc3)cc2)cc1 [NE-2001, 4-(4-methylbenzyl)-4′-[guanidinomethylbenzoyloxy] biphenyl-4-carboxylate]
LD50 ([3]; mouse, in vivo, 2000 mg/kg, oral, single dose, male mice, 6 weeks): > 2000 mg/kg
animal deaths ([3]; mouse, in vivo, po, 2000 mg/kg): no animal deaths occurred
body weight ([3]; mouse, in vivo, po, 2000 mg/kg): all animals gained weight
general toxicity ([3]; oral 2000 mg/kg, male mice): observed in neither cases
Frequency of natural resistant mutation (H. pylori ATCC43504; selected concentration of NE-2001 0.30 μg/ml): <3.4 × 10^−8
Frequency of natural resistant mutation (H. pylori ATCC43504; selected concentration of NE-2001 0.60 μg/ml): <3.4 × 10^−8
Frequency of natural resistant mutation (H. pylori ATCC43504; selected concentration of NE-2001 1.20 μg/ml): <3.4 × 10^−8
MIC Range (H. pylori [1]): 0.10 to 0.48 µg/mL
time at which no visible organism was detected (H. pylori [4]): 3 h

MIC Range (H. pylori [1]): 0.01 to 0.90 µg/mL
Compound: CC[C@H]1OC(=O)[C@H](C)[C@@H](O[C@H]2C[C@@](C)(OC)[C@@H](O)[C@H](C)O2)[C@H](C)[C@@H](O[C@@H]2O[C@H](C)C[C@H](N(C)C)[C@H]2O)[C@](C)(OC)C[C@@H](C)C(=O)[C@H](C)[C@@H](O)[C@]1(C)O [Clarithromycin]

MIC Range (H. pylori [1]): 0.65 to 2.45 µg/mL
Compound: Cc1ncc([N+](=O)[O-])n1CCO [Metronidazole]
